Assay results reported in US4539329A, “7'-Trifluoromethyl-spiro[imidazolidine-4,3'-indoline]-2,2',5-triones as aldose reductase inhibitors” (Imperial Chemical Industries, plc, priority 1982, dated 1985).

Target: T1, aldose reductase (Bos taurus, UniProt P16116)
T1 construct: purified aldose reductase is isolated in known manner from bovine lenses; from tissue; host or cells: bovine lens
Assay: in vitro inhibition of purified aldose reductase from bovine lenses (reduction of glucose to sorbitol, spectrophotometric)
Type: biochemical
Conditions: aldose reductase preparation obtained from bovine lenses; read-out: concentration producing a 50% reduction in the conversion of glucose to sorbitol
Protocol: Thus, purified aldose reductase is isolated in known manner from bovine lenses. The percentage inhibition of this enzyme's ability in vitro to reduce aldoses to polyhydric alcohols, and particularly to reduce glucose to sorbitol, caused by a test compound is then determined using standard spectrophotometric methods. In this test the compounds of formula I in general show significant inhibition of the enzyme aldose reductase at a concentration of about 10^-8 M.

Compound: O=C1NC(=O)C2(N1)C(=O)N(Cc1ccc(Br)cc1F)c1c(C(F)(F)F)cccc12 (racemic) [A, 1'-(4-bromo-2-fluorobenzyl)-7'-(trifluoromethyl)-spiro[imidazolidine-4,3'-indoline]-2,2',5-trione]
- IC50: 10.5 nM
